Target: C4-reductase from serotype HS:15 (HS:15) (Campylobacter jejuni, UniProt F2X7A6)
Assay: X-ray crystal structure, […] A
Format: binding
Details: co-crystallised with 5 mM NADPH and 5 mM GDP; pH 7.5; active site

SMILES | X-ray crystal structure, 1.45 A
Nc1nc2c(ncn2[C@@H]2O[C@H](COP(=O)(O)OP(=O)(O)O)[C@@H](O)[C@H]2O)c(=O)[nH]1 [GDP] | the corresponding electron densities for the GDP and NADPH ligands were unambiguous
NC(=O)C1=CN([C@@H]2O[C@H](COP(=O)(O)OP(=O)(O)OC[C@H]3O[C@@H](n4cnc5c(N)ncnc54)[C@H](OP(=O)(O)O)[C@@H]3O)[C@@H](O)[C@H]2O)C=CC1 [NADPH] | the corresponding electron densities for the GDP and NADPH ligands were unambiguous
